Reference: article PMC8147254, “Efflux at the Blood-Brain Barrier Reduces the Cerebral Exposure to Ochratoxin A, Ochratoxin α, Citrinin and Dihydrocitrinone” (Toxins, 2021)
Where two headings read alike, the source gives them in different places.

Key:
PBCEC = format: cell-based, porcine; conditions: pig
Protocol: In order to study the barrier integrity PBCEC were incubated with 1 µM OTA, OTα, CIT and DHCIT in the apical compartment (blood side) of Transwell® filter inserts for 48 h. The TEER values as well as the electrical capacitance (cCL) were monitored by cellular impedance spectroscopy (Figure 4A,B). As a negative control the permeability of […] was measured after 48 h. Sucrose is not transported by any cellular transport protein and represents a marker for an intact BBB. […]
6.1. Cellular impedance spectroscopy […]
6.2. […] permeability
As additional method to control the barrier tightness the permeability of radiolabeled […]
across the Transwell® inserts was measured. Since 14C sucrose is not transported or taken up by endothelial cells, the permeability of 14C sucrose is an appropriate parameter for barrier integrity.
After 48 h exposure to the mycotoxins 1 μ Ci (37 kBq) […] (Amersham, Buckinghamshire, UK) was applied to the apical compartment. Samples from the basolateral compartment were collected after 10, 20, 30, 40, 60 and 80 min, diluted in scintillation fluid and analyzed with a scintillation counter as previously described.

[1] = 13 German volunteers; cited from earlier work
PBCEC monolayer = format: in vitro ADME, porcine; conditions: 200 nM in both compartments; for effect of probenecid on the enrichment in the apical compartment: 100 µM probenecid; for concentration in the apical compartment after 48 h / concentration in the basolateral compartment after 48 h: n = 3; for mycotoxin amounts extracted from the cells and filter membranes, of the initially applied amount: data not shown
Protocol: To analyse any active transport the mycotoxins were applied in the apical and basolateral compartments in equimolar concentrations of 200 nM. In a second set of experiments, 100 µM probenecid were added to both compartments 1 h before mycotoxin incubation in order to elucidate the effects of the OAT transport proteins. […] The mycotoxin concentrations were analysed as described above by HPLC-MS/MS.
For active transport studies, the cells were treated as described for transfer studies, with the only difference being that the compounds were applied on the apical and basolateral side in equimolar 200 nM concentrations (see Supplementary Materials). To investigate whether probenecid has an effect on the active transfer of the mycotoxins via OAT, 100 µM probenecid was applied to the apical and basolateral compartment 1 h before mycotoxin application and maintained until the end of the experiment.
Afterwards, the column was re-equilibrated for 4 min. An injection volume of 5 µL was used.
5. Active transport studies
To study the active transfer properties, the cells were treated in the same manner as for the normal transfer studies, but the mycotoxins were incubated on the apical and basolateral side in equimolar 200 nM concentrations as previously described. To investigate whether probenecid has an effect on the active transfer of the mycotoxins via OAT, 100 μM probenecid was applied to the apical and basolateral compartment 1 h before mycotoxin application and maintained until the end […]
after applying the mycotoxins using HPLC‐MS/MS. […]

[2] = 50 German volunteers, dried blood spot; cited from earlier work
[3] = 289 µg OTA/kg body weight/48 h for up to 6 weeks; cited from earlier work
[4] = 100 µM probenecid from 1 h before

| Compound | permeability pc (14C sucrose) after mycotoxin incubation (PBCEC) | mean total OTα level in blood plasma [1] [ng/mL] | effect of probenecid on the enrichment in the apical compartment (PBCEC monolayer) | concentration in the apical compartment after 48 h (PBCEC monolayer; [4]) [nM] | concentration in the basolateral compartment after 48 h (PBCEC monolayer; [4]) [nM] | concentration in the apical compartment after 48 h (PBCEC monolayer; without probenecid) [nM] | concentration in the basolateral compartment after 48 h (PBCEC monolayer; without probenecid) [nM] | mycotoxin amounts extracted from the cells and filter membranes, of the initially applied amount (PBCEC monolayer) | mean OTA concentration in blood plasma [1] [ng/mL] | mean whole blood concentration of OTA [2] [ng/mL] | concentration in brain tissue [3] |
| --- | --- | --- | --- | --- | --- | --- | --- | --- | --- | --- | --- |
| C[C@@H]1Cc2c(Cl)cc(C(=O)O)c(O)c2C(=O)O1 [OTα, ochratoxin α] | 0.56 ± 0.24 10^−6 cm/s | 2.99 ± 2.24 | weak | 236 ± 16 | 187 ± 1 | 268 ± 10 | 194 ± 5 | below 1% | – | – | – |
| C[C@@H]1Cc2c(Cl)cc(C(=O)N[C@@H](Cc3ccccc3)C(=O)O)c(O)c2C(=O)O1 [OTA, Ochratoxin A] | 0.81 ± 0.17 10^−6 cm/s | – | minor almost negligible effect | 292 ± 28 | 224 ± 6 | 275 ± 32 | 206 ± 4 | below 1% | 0.25 ± 0.03 | 0.21 ± 0.066 | up to 94 ± 16 ng/g |
| CC1=C2C(=CO[C@H](C)[C@H]2C)C(O)=C(C(=O)O)C1=O [CIT, Citrinin] | 0.50 ± 0.33 10^−6 cm/s | – | some effect of probenecid cannot be dismissed | 205 ± 21 | 180 ± 12 | 266 ± 18 | 182 ± 1 | below 1% | – | – | – |
| Cc1c(O)c(C(=O)O)c(O)c2c1[C@H](C)[C@@H](C)OC2=O [DHCIT, dihydrocitrinone] | 0.38 ± 0.17 10^−6 cm/s | – | – | 250 ± 15 | 178 ± 15 | 278 ± 7 | 186 ± 6 | below 1% | – | – | – |
